The results in this text go back to publication PMC6838151 (Scientific Reports, 2019).

Test [1] relates to S. cerevisiae WT (BY4741). Description: MIC50 growth inhibition, S. cerevisiae wt BY4741, 48 h. It is filed as cell-based, Saccharomyces cerevisiae. The conditions noted are these: YPD, 30 °C. An excerpt:
(§1) For the preliminary studies of the biological activity of the studied compound we chose S. cerevisiae, which is generally considered a non-pathogenic organism, but currently recognized as a potentially important agent causing opportunistic infections against immunocompromised patients. In order to assess whether all the Ke derivatives share the mechanism of action with the parent compound, or if they might present different or additional modes of action, the inhibitory concentration MIC50 (Table 2) was determined on the basis of the dose-response curves (Fig. S11 in ESI) in a 48 h assay against S. cerevisiae wt strain BY4741 and the deletion mutant erg6Δ, which lacks the gene coding for the S-adenosylmethionine: 24-methyltransferase[52], accumulating cholesta-5,7,24-trienol and zymosterol instead of ergosterol. There are several studies reporting that the ERG6 gene deletion may increase the resistance of S. cerevisiae cells to azole compounds[54]–[56]. […] The value determined for the wt strain is in very good agreement with previous studies carried out under similar condition (48 h, 30 °C) (e.g.[57]).
(§2) The following strains of S. cerevisiae were used in this study: BY4741 (wild type towards erg6Δ, ACC Y00000; MATa; his3Δ1; leu2Δ0; met15Δ0; ura3Δ0), erg6Δ (ACC Y00568; BY4741 isogenic with YML008c::kanMX4), W303 (wild type towards AD1-8; MATα; leu2-3,112 trp1-1 can1-100 ura3-1 ade2-1 his3-11,15 AD1-8 (W303 isogenic with pdr1-3, ura3, his1, yor1∆::hisG, snq2∆::hisG, pdr5∆::hisG, pdr10∆::hisG, pdr11∆:: hisG, ycf1∆::hisG, pdr3∆::hisG, pdr15∆::hisG). BY4741 and erg6Δ were acquired from EUROSCARF, Frankfurt, Germany; W303 and AD1-8 were kind gifts from Prof. A. Goffeau, Chaire Internationale Blaise Pascal, Lab. Genet. Mol., École Normale Supérieure, Paris, and Prof. M. Ghislain, Université Catholique de Louvain, Faculté des sciences Agronomiques, Louvain-la-Neuve, Belgium. Visible turbid overnight cultures of S. cerevisiae strains were prepared and diluted to A600 ≈ 0.1 in fresh Yeast Extract – Peptone - Dextrose (YPD) medium. The cultures were transferred to 96 microtiter well plates containing aliquots of serially diluted antifungal drugs (Ke and its derivatives: KeP, KeOP, KeSP, KeSeP), prepared from DMS stock solutions and drug-free controls. The yeast cultures were statically incubated at 30 °C for 48 hours with compounds[88]. The dose-response curves were analysed with GraphPad Prism 5 software (San Diego, USA) or a microplate reader ASYS UVM (Biogenet). All values presented are the mean of at least three independent experiments.

The subject of test [2] is S. cerevisiae erg6Δ. Put plainly: MIC50 growth inhibition, S. cerevisiae erg6Δ deletion mutant, 48 h. The format is cell-based, Saccharomyces cerevisiae.
Description: as §1, §2

Test [3] has as its system S. cerevisiae WT (W303). Put plainly: MIC50 growth inhibition, S. cerevisiae wt W303, 48 h. The format is cell-based. The conditions noted are these: Saccharomyces cerevisiae.
Description: as §2, with “The cultures were transferred to 96 microtiter well plates containing aliquots of serially diluted antifungal drugs (Ke and its derivatives: KeP, KeOP, KeSP, KeSeP), prepared from DMS stock solutions and drug-free controls.” left out

Test [4] has as its system S. cerevisiae AD1-8. Description: MIC50 growth inhibition, S. cerevisiae AD1-8 (lacks major ABC transporters), 48 h. It is filed as cell-based, Saccharomyces cerevisiae. The conditions noted are these: for MIC50: Saccharomyces cerevisiae.
Description: as §2, with “The cultures were transferred to 96 microtiter well plates containing aliquots of serially diluted antifungal drugs (Ke and its derivatives: KeP, KeOP, KeSP, KeSeP), prepared from DMS stock solutions and drug-free controls.” left out

Test [5] deals with C. albicans B3. Put plainly: microbe, parasite or virus in culture. It is filed as cell-based. The conditions noted are these: Candida albicans. The source says: (§3) The C. albicans CAF2-1 (Genotype/Description: ura3Δ::imm434/URA3[89]) and DSY1050 (Genotype/Description: cdr1Δ::hisG/cdr1Δ::hisG/cdr2Δ::hisG/cdr2Δ::hisG/mdr1Δ::hisG-URA3-hisG/mdr1Δ::hisG[90]) strains used in this study were generous gift from D. Sanglard (Lausanne, Switzerland)[91],[92] whereas C. albicans B3 and Gu4 (Genotype/Description: clinical isolates fluconazole sensitive)[93]), B4 (Genotype/Description: Clinical isolate fluconazole resistant due to the overexpression of MDR1[93]) and Gu5 (Genotype/Description: Clinical isolate fluconazole resistant due to the overexpression of CDR1 and CDR2[93]) were a generous gift from prof. S. Milewski (Gdańsk, Poland)[94] and prof. J. Morschhäuser (Wurzburg, Germany)[93]. All strains were grown at 37 °C on Sabouraud medium (Biomerieux).
(§4) The antifungal activity was determined on the 96-well polystyrene microtiter plates (Sarstedt) according to Clinical and Laboratory Standards Institute M27-A3[95]. […] The compounds were dissolved in DMSO (10 mM) and then serially diluted in RPMI-1640 (ThermoFisher) medium to obtain the final concentration range. Inocula of all strains were prepared as suspensions with turbidity of 0.5 McFarland standard in sterile 0.85% saline and diluted in RPMI-1640. After inoculation, each well contained appr. 5 × 10^2 CFU/mL. The plates were cultivated for 48 h at 37 °C. Optical density was measured at A490nm using a microplate reader ASYS UVM 340 (Biogenet).

Test [6] has as its system C. albicans Gu4. Put plainly: microbe, parasite or virus in culture. The format is cell-based. The conditions noted are these: Candida albicans, GU4, 48 h.
Description: as §3, §4

The mark [7] stands for this setting: Saccharomyces cerevisiae, read-out: MIC50.
The mark [8] stands for this setting: AD18, S. cerevisiae AD1-8, YPD, 30 °C, 48 h, read-out: MIC50.
Where [9] appears, read: C. albicans B3, RPMI-1640, 37 °C, 48 h, read-out: MIC50.
Setting [10] is: S. cerevisiae erg6Δ, YPD, 30 °C.
[11] abbreviates: S. cerevisiae WT (W303), YPD, 30 °C, read-out: MIC50.

Values after ≈ are worked out from the molar mass of the structure shown. Where two headings read alike, the source gives them in different places.

As to `O=P(CN1CCN(c2ccc(OC[C@H]3CO[C@](Cn4ccnc4)(c4ccc(Cl)cc4Cl)O3)cc2)CC1)(c1ccccc1)c1ccccc1` (racemic) [KeOP, Ph2P(O)CH2-Ke], the MIC50 turned out to be 0.00416 µM (≈ 0.00293 µg/mL) in test [1] (setting [7]); 0.00482 µM (≈ 0.00339 µg/mL) in test [2] (Saccharomyces cerevisiae); 3.13 µM (≈ 2.2 µg/mL) in test [3]; 0.05 µM (≈ 0.0352 µg/mL) in test [4] (setting [8]); 1.56 µM (≈ 1.1 µg/mL) in test [5] (setting [9]); 12.5 µM (≈ 8.8 µg/mL) in test [6].
As for `S=P(CN1CCN(c2ccc(OC[C@H]3CO[C@](Cn4ccnc4)(c4ccc(Cl)cc4Cl)O3)cc2)CC1)(c1ccccc1)c1ccccc1` [KeSP, Ph2P(S)CH2-Ke], the MIC50 in test [1] (setting [7]) is over 200 µM; in test [1], “inactive”; in test [2] (setting [10]) it was “inactive”; in test [2] (Saccharomyces cerevisiae) it was over 200 µM; in test [3] it was over 200 µM; in test [4] (AD18, 48 h), 0.2 µM (≈ 0.144 µg/mL). The results for the MIC50 in test [5] (setting [9]) and in test [6] were 1.56 µM (≈ 1.12 µg/mL) and 50 µM (≈ 36 µg/mL), respectively. In addition, the “MIC50 against AD1-8 lower than against W303 cells” value in test [4] (AD1-8 vs W303) was “more than 3 orders of magnitude”.
`Clc1ccc([C@@]2(Cn3ccnc3)OC[C@H](COc3ccc(N4CCN(CP(c5ccccc5)c5ccccc5)CC4)cc3)O2)c(Cl)c1` (racemic) [KeP, Ph2PCH2-Ke]: the MIC50 stood at 9.02 µM (≈ 6.2 µg/mL) in test [1] (setting [7]); 0.654 µM (≈ 0.45 µg/mL) in test [2] (Saccharomyces cerevisiae); 12.5 µM (≈ 8.6 µg/mL) in test [3] (setting [11]); 0.2 µM (≈ 0.138 µg/mL) in test [4] (setting [8]); 0.39 µM (≈ 0.268 µg/mL) in test [5] (setting [9]); 3.13 µM (≈ 2.15 µg/mL) in test [6].
As for `CC(=O)N1CCN(c2ccc(OCC3COC(Cn4ccnc4)(c4ccc(Cl)cc4Cl)O3)cc2)CC1` (stereo not shown) [Ke, ketoconazole, reference compound], the MIC50 is 0.865 µM (≈ 0.46 µg/mL) in test [1] (setting [7]); “no activity” in test [2] (setting [10]); over 200 µM in test [2] (Saccharomyces cerevisiae); 6.25 µM (≈ 3.32 µg/mL) in test [3] (setting [11]); 0.02 µM (≈ 0.0106 µg/mL) in test [4] (AD18, 48 h); 0.05 µM (≈ 0.0266 µg/mL) in test [5] (B3, 48 h). In test [6], this compound returned an MIC50 of 25 µM (≈ 13.3 µg/mL).
Consider `Clc1ccc([C@@]2(Cn3ccnc3)OC[C@H](COc3ccc(N4CCN(CP(=[Se])(c5ccccc5)c5ccccc5)CC4)cc3)O2)c(Cl)c1` [KeSeP, Ph2P(Se)CH2-Ke], for which the MIC50 in test [1] (setting [7]) amounted to 1.24 µM (≈ 0.954 µg/mL); in test [2] (Saccharomyces cerevisiae) it was 0.578 µM (≈ 0.443 µg/mL); in test [3] (setting [11]), 50 µM (≈ 38.3 µg/mL); in test [4] (setting [8]) it was 0.2 µM (≈ 0.153 µg/mL); in test [5] (setting [9]), 3.13 µM (≈ 2.4 µg/mL); in test [6], 12.5 µM (≈ 9.58 µg/mL).
